Experimental data as given in ChEMBL document CHEMBL5512665, “A CARM1 Inhibitor Potently Suppresses Breast Cancer Both In Vitro and In Vivo” (J Med Chem, 2024).
Calls of active or inactive are those of the source. The calls are words filed in the database; no cut-off is given here.

Experiments:
4T1 [1] = assay: Potentiation of etoposide induced antiproliferative activity against mouse 4T1 cells assessed as upregulation of ISG15 gene expression at 2.5 uM in presence of etoposide by RT-qPCR analysis; type: functional, cell-based
MCF7 [2] = assay: Synergistic antiproliferative activity against human MCF7 cells assessed as downregulation of N-Myc gene expression at 2.5 uM incubated for 6 hrs in presence of fulvestrant by RT-qPCR analysis; type: functional, cell-based
MCF7 [3] = assay: Potentiation of etoposide induced antiproliferative activity against human MCF7 cells assessed as inhibition of cell growth at 2.5 uM incubated for 7 days in presence of etoposide by celltiter 96 aqueous one solution cell proliferation assay; type: functional, cell-based; settings: time 7.0 day
4T1 [4] = assay: Antitumor activity against mouse 4T1 cells implanted in BALB/C mouse assessed as upregulation of IFNalpha gene expression at 50 mg/kg,ip administrated daily for 14 days by RT-qPCR analysis; type: functional, organism-based; settings: time 14.0 day
4T1 [5] = assay: Antitumor activity against mouse 4T1 cells implanted in BALB/C mouse assessed as downregulation of TFF1 gene expression at 50 mg/kg,ip administrated daily for 14 days by RT-qPCR analysis; type: functional, organism-based; settings: time 14.0 day
MCF7 [6] = assay: Synergistic antiproliferative activity against human MCF7 cells assessed as inhibition of colony formation at 2.5 uM incubated for 10 days in presence of fulvestrant by crystal violet staining based analysis; type: functional, cell-based; settings: time 10.0 day
MCF7 [7] = assay: Synergistic antiproliferative activity against human MCF7 cells assessed as downregulation of N-Myc gene expression at 2.5 uM incubated for 6 hrs in presence of tamoxifen by RT-qPCR analysis; type: functional, cell-based
4T1 [8] = assay: Antitumor activity against mouse 4T1 cells implanted in BALB/C mouse assessed as downregulation of CCND1 gene expression at 25 mg/kg,ip administrated daily for 14 days by RT-qPCR analysis; type: functional, organism-based; settings: time 14.0 day
4T1 [9] = assay: Potentiation of etoposide induced antitumor activity against mouse 4T1 cells implanted in BALB/C mouse assessed as upregulation of IFNalpha gene expression at 25 mg/kg,ip administrated daily for 12 days in presence of 8 mg/kg etoposide administration by RT-qPCR analysis; type: functional, organism-based; settings: time 12.0 day
4T1 [10] = assay: Potentiation of etoposide induced antitumor activity against mouse 4T1 cells implanted in BALB/C mouse assessed as reduction in tumor size at 25 mg/kg,ip administrated daily for 12 days in presence of 8 mg/kg etoposide administration; type: functional, organism-based; settings: time 12.0 day
MCF7 [11] = assay: Antitumor activity against human MCF7 cells xenografted in BALB/C mouse assessed as downregulation of C-Myc gene expression at 25 mg/kg,ip administrated every other day for 29 days by RT-qPCR analysis; type: functional, organism-based; settings: time 29.0 day
[12] = Toxicity in BALB/C mouse implanted with mouse 4T1 cells assessed as change in spleen morphology at 25 mg/kg,ip administrated daily for 14 days; type: organism-based; settings: in vivo, 336 h, time 14 day
MCF7 [13] = assay: Antitumor activity against human MCF7 cells xenografted in BALB/C mouse assessed as reduction of tumor size at 25 mg/kg,ip administrated every other day for 29 days; type: functional, organism-based; settings: time 29.0 day
4T1 [14] = assay: Antitumor activity against mouse 4T1 cells implanted in BALB/C mouse assessed as downregulation of C-Myc gene expression at 50 mg/kg,ip administrated daily for 14 days by RT-qPCR analysis; type: functional, organism-based; settings: time 14.0 day
4T1 [15] = assay: Antitumor activity against mouse 4T1 cells implanted in BALB/C mouse assessed as downregulation of FOXC1 gene expression at 25 mg/kg,ip administrated daily for 14 days by RT-qPCR analysis; type: functional, organism-based; settings: time 14.0 day
MCF7 [16] = assay: Antitumor activity against human MCF7 cells xenografted in BALB/C mouse assessed as upregulation of IFNalpha gene expression at 50 mg/kg,ip administrated every other day for 29 days by RT-qPCR analysis; type: functional, organism-based; settings: time 29.0 day
MCF7 [17] = assay: Synergistic antiproliferative activity against human MCF7 cells assessed as downregulation of C-Myc gene expression at 2.5 uM incubated for 6 hrs in presence of tamoxifen by RT-qPCR analysis; type: functional, cell-based
MCF7 [18] = assay: Potentiation of etoposide induced antiproliferative activity against human MCF7 cells assessed as upregulation of DDX58 gene expression at 2.5 uM in presence of etoposide by RT-qPCR analysis; type: functional, cell-based
HCC1937 = assay: Antiproliferative activity against human HCC1937 cells assessed as reduction in cell growth incubated for 7 days by celltiter 96 aqueous one solution cell proliferation assay; settings: HCC1937, 168 h
4T1 [19] = assay: Antitumor activity against mouse 4T1 cells implanted in BALB/C mouse assessed as increase in infiltration of CD8 positive T cells at 25 mg/kg,ip administrated daily for 14 days by immunohistochemical staining based analysis; type: functional, organism-based; settings: time 14.0 day
4T1 [20] = assay: Antitumor activity against mouse 4T1 cells implanted in BALB/C mouse assessed as downregulation of C-Myc gene expression at 25 mg/kg,ip administrated daily for 14 days by RT-qPCR analysis; type: functional, organism-based; settings: time 14.0 day
MCF7 [21] = assay: Antitumor activity against human MCF7 cells xenografted in BALB/C mouse assessed as inhibition of tumor growth at 25 mg/kg,ip administrated every other day for 29 days; type: functional, organism-based; settings: time 29.0 day
MCF7 [22] = assay: Antitumor activity against human MCF7 cells xenografted in BALB/C mouse assessed as downregulation of NRIP1 gene expression at 50 mg/kg,ip administrated every other day for 29 days by RT-qPCR analysis; type: functional, organism-based; settings: time 29.0 day
MCF7 [23] = assay: Antitumor activity against human MCF7 cells xenografted in BALB/C mouse assessed as upregulation of IFIT1 gene expression at 25 mg/kg,ip administrated every other day for 29 days by RT-qPCR analysis; type: functional, organism-based; settings: time 29.0 day
[24] = Toxicity in BALB/C mouse implanted with mouse 4T1 cells assessed as change in lung morphology at 50 mg/kg,ip administrated daily for 14 days; type: organism-based; settings: in vivo, 336 h, time 14 day
MCF7 [25] = assay: Antitumor activity against human MCF7 cells xenografted in BALB/C mouse assessed as downregulation of TFF1 gene expression at 25 mg/kg,ip administrated every other day for 29 days by RT-qPCR analysis; type: functional, organism-based; settings: time 29.0 day
4T1 [26] = assay: Antitumor activity against mouse 4T1 cells implanted in BALB/C mouse assessed as downregulation of GREB1 gene expression at 25 mg/kg,ip administrated daily for 14 days by RT-qPCR analysis; type: functional, organism-based; settings: time 14.0 day
4T1 [27] = assay: Antitumor activity against mouse 4T1 cells implanted in BALB/C mouse assessed as upregulation of CD8A expression at 25 mg/kg,ip administrated daily for 14 days by immunohistochemical staining based analysis; type: functional, organism-based; settings: time 14.0 day
4T1 [28] = assay: Antitumor activity against mouse 4T1 cells implanted in BALB/C mouse assessed as upregulation of IFIT1 gene expression at 50 mg/kg,ip administrated daily for 14 days by RT-qPCR analysis; type: functional, organism-based; settings: time 14.0 day
4T1 [29] = assay: Antitumor activity against mouse 4T1 cells implanted in BALB/C mouse assessed as upregulation of CCL5 gene expression at 50 mg/kg,ip administrated daily for 14 days by RT-qPCR analysis; type: functional, organism-based; settings: time 14.0 day
4T1 [30] = assay: Potentiation of etoposide induced antiproliferative activity against mouse 4T1 cells assessed as upregulation of IFNalpha gene expression at 2.5 uM in presence of etoposide by RT-qPCR analysis; type: functional, cell-based
[31] = Toxicity in BALB/C mouse implanted with mouse 4T1 cells assessed as change in heart morphology at 50 mg/kg,ip administrated daily for 14 days; type: organism-based; settings: in vivo, 336 h, time 14 day

EC50 (HCC1937): 1970 nM
Structure (SMILES): Cc1ccc(-c2nc(N3CCN(CCN(C)C)CC3)ncc2-c2ccoc2)cc1.Cl.Cl
Activity (4T1 [1]): Active
Activity (MCF7 [2]): Active
Activity (MCF7 [3]): Active
Activity (4T1 [4]): Active
Activity (4T1 [5]): Active
Activity (MCF7 [6]): Active
Activity (MCF7 [7]): Active
Activity (4T1 [8]): Active
Activity (4T1 [9]): Active
Activity (4T1 [10]): Active
Activity (MCF7 [11]): Active
Activity [12]: Non-Toxic
Activity (MCF7 [13]): Active
Activity (4T1 [14]): Active
Activity (4T1 [15]): Active
Activity (MCF7 [16]): Active
Activity (MCF7 [17]): Active
Activity (MCF7 [18]): Active
Activity (4T1 [19]): Active
Activity (4T1 [20]): Active
Activity (MCF7 [21]): Active
Activity (MCF7 [22]): Active
Activity (MCF7 [23]): Active
Activity [24]: Non-Toxic
Activity (MCF7 [25]): Active
Activity (4T1 [26]): Active
Activity (4T1 [27]): Active
Activity (4T1 [28]): Active
Activity (4T1 [29]): Active
Activity (4T1 [30]): Active
Activity [31]: Non-Toxic
